Experiments:
[1] = Untargeted metabolomics of blood serum and brain tissue; format: in vivo, mouse; conditions: inferred from similarly elevated levels in serum and brain tissue of old mice
Procedure: Blood serum and hippocampal brain tissue was removed from young and old mice and snap-frozen in liquid nitrogen after determining the weight. Sample analysis was conducted by Metabolon, Inc. using a proprietary series of organic and aqueous extractions to remove the protein content while allowing maximum recovery of small molecules. The extract was divided into two parts: one for analysis by LC and the other for analysis by GC. TurboVap® (Zymark) was used to remove the organic solvent content. Each sample was then frozen and dried under vacuum. The exact methodology can be provided by Metabolon, Inc. as their standard protocol for untargeted mass spectrometry metabolomics.
Samples were snap-frozen upon collection and stored at −80° C. until further processing at Metabolon, Inc. 52. Briefly, recovery standards were added prior to the first step in the extraction process for quality control purposes. […] Three types of controls were analyzed in concert with the experimental samples: samples generated from a pool of spike-in controls extensively characterized by Metabolon, Inc. or generated from a small portion of each experimental sample of interest served as technical replicate throughout the data set; extracted water samples served as process blanks; and a cocktail of standards spiked into every analyzed sample allowed instrument performance monitoring. […]

[2] = test system: parvalbumin-positive interneurons; assay: Spontaneous IPSC recordings from parvalbumin-positive interneurons in acute hippocampal slices; format: cell-based; conditions: bath-applied, 10 μM; acute mouse hippocampal slices, area CA1
Procedure: Mice were anesthetized and decapitated, after which the brain was quickly removed and placed into oxygenated, ice-cold, high-sucrose artificial cerebrospinal fluid (hsACSF), containing (in mM): 150 sucrose, 50 NaCl, 25 NaHCO3, 10 dextrose, 2.5 KCl, 1 NaH2PO4·H2O, 0.5 CaCl2), and 7 MgCl2. After 2 min in hsACSF, the brain was blocked, glued to the stage of a Vibratome (VTS1000; Leica, Bannockburn, IL), and cut into 300-μm horizontal brain slices containing hippocampus. Slices were then placed in a chamber containing ACSF (in mM: 124 NaCl, 3 KCl, 1.25 NaH2PO4·H2O, 2 MgSO4·7H2O, 26 NaHCO3, 10 dextrose, and 2 CaCl2)). […]
For recording, slices were placed in a submerged recording chamber (Warner Instruments, Hamden, CT) with oxygenated ACSF heated to 32° C. and flowing at 2-4 ml/min. […] Data were obtained using an Axopatch 1D amplifier (Axon Instruments, Foster City, CA); data were digitized at 10 kHz and recorded using a Digidata 1320A and pClamp 8.2 software (Molecular Devices, Sunnyvale, CA). […] After obtaining a stable voltage-clamp recording from a CA1 interneuron, the recording was switched to current-clamp mode and injected steps of hyperpolarizing and depolarizing current were used to determine the class of cell being recorded using published firing patterns and action potential (AP) properties (Butt et al., 2005; Flames and Marin, 2005). […]

blood-brain barrier crossing [1]: cross the blood-brain barrier
Structure (SMILES): C[N+](C)(C)CCCCC(=O)[O-] [NNN-trimethyl-5-aminovalerate, 5-(trimethylammonio) pentanoate]
frequencies of spontaneous IPSCs (spIPSCs) in parvalbumin-positive interneurons [2]: increase

— patent US20260276656A1, “GUT MICROBIOTA-RELATED METHODS FOR TREATING DEMENTIA AND AGE-DEPENDENT COGNITIVE DECLINE” (Albert-Ludwigs-Universitat Freiburg, priority 2019, published 2026)
